Experimental data: patent US9809640B2, “ApoE peptide dimers and uses thereof” (priority 2010, dated 2017)
Starred links: 1 amine or outer side, 2 acyl side, 3 side chain; linkers in the order of their positions; H or OH if unused. Positions of bridges follow the written chain, without caps; N, C: chain ends. Chains are numbered I, II in the order given. BMOE = O=C1CC([*:1])C(=O)N1CCN1C(=O)CC([*:2])C1=O

Tests used:
breast cancer cell lines = test: Cytotoxicity in breast cancer cell lines by cell counting; format: cell-based, human; details: serum-free media, 24 hrs
Description: FIG. 28. Cytotoxic effects of COG449 in breast cancer cells. Cell lines were grown in serum-free media and COG449 as indicated for 24 hrs. Cellular proliferation was measured by cell counting. Cell number is represented relative to control, untreated cells.

[1] = Tolerability of COG449 by intravenous infusion; format: in vivo
MDA-MB-231 xenografts = test: MDA-MB-231 TNBC xenografts in NSG mice; format: in vivo; details: both xenograft studies
Description: FIGS. 30A-30B. Inhibition of triple negative breast cancer (TNBC) tumor growth in xenografts with COG449 treatment. FIG. 30A: 4×10^6 MDA-MB-231 cells were injected with Matrigel into the 4th mammary glands of immune compromised mice and treated daily by subcutaneous injection of 10 mg/kg COG449 starting at day 10. FIG. 30B: 4×10^6 MDA-MB-231 cells were injected with Matrigel into the 4th mammary glands of immune compromised mice and treated by intravenous tail vein injection 3× week at 1 mg/kg starting at day 27 post injection. Tumor volume was determined by caliper measurement.
To begin assessment of the potential of combination therapies with COG449, we analyzed the effect of treating MDA-231 cells with sub-lethal doses of COG449 and the multi-kinase inhibitor Sorafenib or the EGFR inhibitor Gefitinib at concentrations below their ED50 doses. […] We also evaluated the effects of COG449 in vivo using xenograft experiments. To determine whether COG449 might be effective against TNBC tumors in xenografts, immune compromised NOD/SCID gamma-chain null (NSG) mice were injected with MDA-231 cells into their 4th mammary glands. Once tumors became palpable at around 10 days, tumors were treated by twice weekly subcutaneous injection of COG449 at 10 mg/kg. At 28 days post-xenograft, daily intra-tumor injection of COG449 was initiated and continued until sacrifice (FIG. 30A). […]

[2] = Cytotoxicity on normal B-cells from volunteers; format: cell-based, human; details: human, normal B-cells from volunteers
Description: Blood from CLL patients was collected and CD5+/CD19+ CLL cells were isolated using the RosetteSep™ Human B-Cell Enrichment Cocktail, according to the manufacturer's instructions, and treated with COG compounds. Compounds were applied to B-CLL cells (2.5×10^5 cells/well in a 96 well plate), after which the cells were treated for 72 hours.
Normal B-cells from volunteers and B-CLL cells from patients are isolated using the RosetteSep™ Human B Cell Enrichment Cocktail according to the manufacturer's instructions. This method depletes whole blood of T cells, monocytes, and NK cells using a proprietary antibody cocktail that cross-links unwanted cells in human whole blood to multiple red blood cells (RBCs) forming immunorosettes. This increases the density of the unwanted (rosetted) cells, such that they pellet along with the free RBCs when centrifuged over a buoyant density medium such as Ficoll-Paque®. This leaves the highly enriched B-cell or B-CLL cells at the interface between Ficoll and the plasma. The antibodies in the cocktail contain anti-CD14, anti-CD2 and anti-CD16 antibodies to remove T cells, monocytes, and NK cells, respectively. The purity of these B-cell and B-CLL preparations is then determined by flow cytometry. Preparations typically average less than 2% CD3+ T-cells and less than 0.5% CD14+ monocytes. In the case of B-CLL cell isolation, we routinely obtain preparations that contain less than 1.5% normal CD19+/CD5− B-cells using this method.

U87MG glioblastoma cells = format: cell-based; details: MTT
Description: FIG. 14A: Dose response curve of COG445 on proliferation of U87 (open circles) and MDA-MB-231 (filled circles) cells as measured by MTT reduction. FIG. 14B: Dose response curve of COG445 on proliferation of MDA-MB-231 cells as measured by cell count.
To determine whether ApoE peptide dimers were cytotoxic to other types of cancer, we evaluated the effect of three different ApoE BMOE-linked peptide dimers (COG449, COG492, COG493; see Table I) on the growth characteristics of U87MG glioblastoma cells. Various concentrations of COG449, COG492, COG493 or Sorafenib were used to treat U87MG glioblastoma cells and viable cells were quanititated using MTT. Sorafenib, which has previously been reported to be cytotoxic to glioblastoma cells (Yang et al. (2010) Mol Cancer Ther., Vol. 9(4):953-962), was used as a positive control.
Because COG445 inhibited Akt activation and downstream signaling, we examined the effects of COG445 on cellular proliferation. Adherent MB231 and U87 cells were grown for ˜24 hours in the presence of COG445 and cellular proliferation was measured by MTT reduction. […] Furthermore, COG445 inhibited MB231 cellular proliferation as determined by cell count (FIG. 14B). Approximately 6×10^4 cells were plated in growth media (RPMI+10% FBS) for 24-hours with increasing concentrations of COG445. […] However at concentrations ≧1 μM COG445, there appears to be a loss of cells. This is partially explained by decreased proliferation, although it is possible that the rate of cellular degradation was increased in the presence of COG445.

[3] = Mouse toxicity, maximum tolerated dose by intravenous injection; details: in vivo, maximum dose by intravenous injection without deaths after 24 hrs
Excerpt: We also evaluated the various peptides for efficacy in suppressing nitric oxide production induced by LPS stimulation of BV2 microglia cells as a measure of anti-inflammatory activity as well as the maximum dose tolerated in mice (Table I and FIG. 6A). For the LPS assay, EC50 is the concentration of compound that caused a 50% suppression of nitric oxide release from BV2 cells following LPS stimulation. For mouse toxicity, MTD is the maximum dose of the compound that can be given by intravenous injection without causing deaths after 24 hrs. […] Coupling the ApoE domain to a protein transduction domain further enhanced the potency of the dimers.

CLL cells = details: 24 h
Description: We next sought to determine whether SET antagonism would destabilize Mcl-1. Destabilization of Mcl-1 by treatment with SET antagonists was evaluated by treating primary human CLL cells for 24 hr with the ApoE peptide dimer COG449 (a BMOE-linked dimer of COG112; see Example 2) and evaluating the level of Mcl-1 in the cells.

PP2A = PP2A activity in 32D:BCR/Abl chronic myelogenous leukemia cells (PP2A immunoprecipitation assay); format: cell-based; details: 1 μM, 30 minutes
Description: FIGS. 4A-4B. The BMOE-linked dimer peptide COG449 activates PP2A in CML cells. FIG. 4A: 32D-BCR/Abl chronic myelogenous leukemia cells were treated with COG449 (1 μM), COG445 (1 μM) (disulfide-linked COG112 dimer) or no treatment, and the PP2A activity was measured. FIG. 4B: 32D:BCR/Abl cell cultures were treated with no compound, 1 μM COG449, or 5 μM FTY720 for 30 minutes followed by lysis in an NP40 lysis buffer. PP2A was immunoprecipitated and assayed with the PP2A Immunoprecipitation assay kit (Upstate) according to the manufacturer's directions.
To further evaluate the effect of COG449, we measured the ability of the stable dimerized COG449 compound to activate PP2A in 32D:p210^BCR/Abl chronic myelogenous leukemia cells. […] 32D:p210^BCR/Abl chronic myelogenous leukemia cells were treated with no compound, 1 μM COG449, or 5 μM FTY720. We observed a robust increase of approximately 45% relative specific activity (phosphate release/minute/unit protein) of PP2A upon treatment with COG449 alone when compared to the untreated control, and about 20% activation compared with FTY720 (FIG. 4B).

[4] = system: Ramos cell line of Burkitt's lymphoma; test: Growth of Ramos cells in culture; format: cell-based; details: read-out: EC50 growth inhibition in culture
MDA-231 cells = test: Combination treatment of MDA-231 cells (MTT); format: cell-based; details: sub-lethal doses, 48 hrs, greater than either compound alone
Description: FIG. 29. Combination treatment with COG449 and sorafenib or gefitinb on triple negative breast cancer (TNBC) cell line growth. MDA-231 cells were grown in the presence of COG449, sorafenib, or gefitinb at sub-lethal doses as indicated. After 48 hrs, live cells were quantified using the MTT assay. *** indicates p<0.001.
To begin assessment of the potential of combination therapies with COG449, we analyzed the effect of treating MDA-231 cells with sub-lethal doses of COG449 and the multi-kinase inhibitor Sorafenib or the EGFR inhibitor Gefitinib at concentrations below their ED50 doses. […] We also evaluated the effects of COG449 in vivo using xenograft experiments. To determine whether COG449 might be effective against TNBC tumors in xenografts, immune compromised NOD/SCID gamma-chain null (NSG) mice were injected with MDA-231 cells into their 4th mammary glands. Once tumors became palpable at around 10 days, tumors were treated by […] subcutaneous injection of COG449 at 10 mg/kg. At 28 days post-xenograft, daily intra-tumor injection of COG449 was initiated and continued until sacrifice (FIG. 30A). In order to use a more clinically relevant treatment paradigm, MDA-231 xenografted mice were treated 3-times a week with 1 mg/kg COG449 by intravenous injection (FIG. 30B).

In the case of “I: Ac-RQIKIWFQNRRMKWKKCLRVRLASHLRKLRKRLL-NH2 / II: Ac-RQIKIWFQNRRMKWKKCLRVRLASHLRKLRKRLL-NH2 (linker I:17-II:17 via BMOE) [COG449, COG112-C-BMOE-C-COG112]”, the “cytotoxicity to breast cancer cell lines incl. MDA-231, MDA-468, HCC38” value (breast cancer cell lines) is reported as “cytotoxic to all cell lines”, the first adverse events ([1]; 20 mg/kg) is reported as “mild edema in the front paws and lethargy” and the adverse effects ([1]; intravenous infusion, 10-15 mg/kg) is reported as “without any observed adverse effects”. For the same substance, the “cytotoxic effects in mice” value (MDA-MB-231 xenografts) was “No cytotoxic effects”, the EC50 at 72 h [2] was > 10000 nM and the “cytotoxicity to U87MG cells” value (U87MG glioblastoma cells) was “cytotoxic”. The MTD at 24 h [3] was 12 mg/kg, the EC50 (CLL cells) was ~110 nM and the “increase of relative specific activity of PP2A compared to untreated control” value (PP2A) was “approximately 45%”. The EC50 [4] was 125 nM, the “cytotoxic effect in combination with Gefitinib” value (MDA-231 cells) was “robust cytotoxic effect” and the “cytotoxic effect in combination with Sorafenib” value (MDA-231 cells) was “robust cytotoxic effect”.
